Results reported in ChEMBL document CHEMBL5034044, “Novel Compounds for Targeted Degradation of BRD9 and Their Use for Treating Cancer” (ACS Med Chem Lett, 2022).

Biological target: T1, Bromodomain-containing protein 9 (Homo sapiens, UniProt Q9H8M2)
T1 sequence (Q9H8M2 whole entry): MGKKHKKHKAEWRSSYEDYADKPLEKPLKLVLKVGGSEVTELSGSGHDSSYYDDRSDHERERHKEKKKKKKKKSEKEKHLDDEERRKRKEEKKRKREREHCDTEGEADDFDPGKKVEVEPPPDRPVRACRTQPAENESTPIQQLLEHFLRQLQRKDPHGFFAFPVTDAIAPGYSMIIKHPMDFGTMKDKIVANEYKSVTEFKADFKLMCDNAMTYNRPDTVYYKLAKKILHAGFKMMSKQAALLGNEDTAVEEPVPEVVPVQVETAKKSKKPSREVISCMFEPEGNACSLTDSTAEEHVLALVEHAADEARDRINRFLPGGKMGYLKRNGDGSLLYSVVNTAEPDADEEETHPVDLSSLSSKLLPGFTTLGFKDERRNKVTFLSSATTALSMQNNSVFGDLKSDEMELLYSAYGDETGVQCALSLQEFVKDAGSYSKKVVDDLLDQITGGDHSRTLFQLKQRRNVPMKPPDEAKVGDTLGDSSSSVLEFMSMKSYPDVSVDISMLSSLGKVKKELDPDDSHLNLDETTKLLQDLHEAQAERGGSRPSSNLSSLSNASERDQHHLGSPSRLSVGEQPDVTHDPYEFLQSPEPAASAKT
Test: Induction of degradation of BRD9 (unknown origin) assessed as protein degradation measured after 2 hrs by HiBit Lytic assay

| Compound | DC50 [nM] |
| --- | --- |
| COc1cc(-c2cn(C)c(=O)c3cnccc23)c(Cl)cc1CN1CCC(N2CCN(c3ccc(NC4CCC(=O)NC4=O)cc3F)CC2)C(F)(F)C1 (stereo unspecified) | < 100 |
| COc1cc(-c2cn(C)c(=O)c(C)c2C)cc(Cl)c1CN1CCC(N2CCN(c3ccc(NC4CCC(=O)NC4=O)cc3F)CC2)C(F)(F)C1 (stereo unspecified) | < 100 |
| COc1cc(-c2cn(C)c(=O)c3[nH]ncc23)cc(OC)c1CN1CCc2c(CN3CCC(c4ccc(NC5CCC(=O)NC5=O)cc4)C(F)(F)C3)csc2C1 (stereo unspecified) | < 100 |
| COc1cc(-c2cn(C)c(=O)c(C)c2C)cc(OC)c1CN1CCN(C(=O)CC2CCN(c3ccc(NC4CCC(=O)NC4=O)cc3C(F)(F)F)CC2)CC12CC2 (stereo unspecified) | < 100 |
| COc1cc(-c2cn(C)c(=O)c3[nH]ncc23)cc(OC)c1CN1CCC2(CC1)CN(C(=O)CN1CCC(c3ccc(NC4CCC(=O)NC4=O)cc3)CC1)C2 (stereo unspecified) | < 100 |
| CC(c1ccc(-c2cn(C)c(=O)c3cc(F)ccc23)cc1OC(F)(F)F)N1CCC(C2CCN(c3ccc(NC4CCC(=O)NC4=O)cc3F)CC2)CC1 (stereo unspecified) | < 100 |
